Experimental data: US6362207B1, “Methods of treating viral infections with benzimidazoles” (priority 1995, dated 2002)
Where two headings read alike, the source gives them in different places.

What was measured:
rhinovirus = experiment: In vitro rhinovirus model; format: cell-based
[1] = tested on: HIV-1 in U1 cells (promonocytic, from U937); experiment: Additional chronic HIV studies, monocytes; format: cell-based; conditions: chronic HIV model
Procedure: Chronic HIV-1 infected cells U1 were derived from an acute HIV-1 infection of the promonocytic cell line, U937. The chronic HIV-1 infected cells, ACH-2 were derived from an acute HIV-1 infection of the T cell line, A3.01.
These cells were cultured in medium and the phorbol ester, PMA. PMA causes the cells (both U1 and ACH-2) to be activated and not divide but it also causes the U-1 cells to differentiate. […] Cell viability was measured when these cell lines were treated with the test compound.
Both cell lines constituitively produce a small amount of HIV-1. ACH-2 cell lines tend to produce more HIV-1 than U1 cells as shown by p24 ELISA. When either cell line is cultured in the presence of PMA there is an increase in the quantity of HIV-1 produced as measured by the p24 antigen ELISA.
In addition, the number of […] positive HIV mRNA expressing cells per microscopic field is measured. Comparisons can be made from these numbers since the same number of cells were adhered to the glass slides for each drug concentration 10×10^6 cells/ml).
These cells were treated with test samples. […] The positive control was interferon which suppressed HIV monocytes replication by 80%.

HIV = experiment: microbe, parasite or virus in culture; format: cell-based; conditions: 1 μg/ml
A549 lung tumor cells = experiment: MTT cell viability test, lung tumor cells; format: cell-based, human; conditions: MTT, 5 day incubation
HT29 colon tumor cells = experiment: MTT cell viability test, colon tumor cells; format: cell-based, human; conditions: MTT, 5 day incubation
MX1 breast cells = experiment: MTT cell viability test, breast tumor cells; format: cell-based, human; conditions: 5 day incubation
[2] = format: in vivo
From the text: Additional in vivo cancer studies are presented in a tabular form below. The data is presented in the following format—dose regimen in parenthesis, dosage in mg/kg: tumor growth suppression (tg supp.), toxic deaths/number of test subjects (deaths), % weight change (wt).

[3] = tested on: MX1 breast cancer tumors implanted subcutaneously; experiment: Tumor growth reduction in mice models (Table 5), breast; format: in vivo; conditions: MXI-breast, positive control 125 mg/kg
lung = format: in vivo; conditions: A549-lung, positive control 125 mg/kg
B-16 mouse melanoma = tested on: B-16 mouse melanoma
Procedure: The data in Tables 1, 2 and 3 are reported in T/C which is interpreted using the following scale:
long term survivors for P388 is >30 days, for B16 it is >60 days. The NCI Measure of Success is T/C=125.
This study was performed in black mice injected i.p. with B-16 mouse melanoma which many researchers believe is the most predictive model for efficacy in humans. […] Death is the end point in this model.

P388 = experiment: P-388 model for leukemia, T/C; format: in vivo, mice
From the text: In the P-388 model for leukemia there was a dose responsive effect and the results were good.
The NCI Measure of Success is T/C=125.

herpes = experiment: In vivo herpes screening test; design: species or system mice; conditions: 75 mg/kg
Procedure: The positive control was acyclovir at 75 mg/kg dose; 60% of the mice survived with a mean death date of 17.2 days.

influenza = experiment: In vivo model for influenza; design: species or system mice; conditions: 75 mg/kg; for 21 days
Procedure: The positive control was amantadine (75 mg/kg) with 100% of the mice surviving for 21 days. 2-(Methoxycarbonylamino)benzimidazole was not active in the same test.

colon = experiment: Tumor growth reduction in mice models (Tables 5 and 6), colon; format: in vivo; conditions: HT29-colon, positive control 4 mg/kg
[4] = given for perspective; cited from earlier work
[5] = A549 (lung), positive control 125 mg/kg
[6] = DU-145, positive control 300 mg/kg, 1 dose
[7] = HT29 (colon), positive control 300 mg/kg, 1 dose
[8] = MCF-7L (breast), positive control 300 mg/kg, 1 dose
[9] = MX1 xenograft, positive control 300 mg/kg, 1 dose
[10] = positive control, 300 mg/kg on dose
[11] = SK-MES, positive control 2 mg/kg, 5 doses

COc1ccc2nc(C(O)C(O)c3nc4ccc(OC)cc4[nH]3)[nH]c2c1 (stereo not shown) [A36683, reference compound]
therapeutic index (TI), ratio of toxic dose to efficacious dose (rhinovirus): 1000-3200

Cc1cn([C@H]2C[C@H](N=[N+]=[N-])[C@@H](CO)O2)c(=O)[nH]c1=O [AZT, reference compound]
activity in this model [1]: no activity
inhibition of viral replication (HIV): 98%

COc1cccc2c1C(=O)c1c(O)c3c(c(O)c1C2=O)C[C@@](O)(C(=O)CO)C[C@@H]3O[C@H]1C[C@H](N)[C@H](O)[C@H](C)O1 [Adriamycin, reference compound]
EC-50 Result (A549 lung tumor cells; A549, first column): 0.03 ppm
EC-50 Result (A549 lung tumor cells; A549, second column): 0.009 ppm
EC-50 Result (HT29 colon tumor cells; HT29, first column): 0.03 ppm
EC-50 Result (HT29 colon tumor cells; HT29, second column): 0.006 ppm
EC-50 Result (MX1 breast cells; MX1, first column): 0.02 ppm
EC-50 Result (MX1 breast cells; MX1, second column): 0.001 ppm

O=P1(N(CCCl)CCCl)NCCCO1 (stereo not shown) [Cytoxan, reference compound]
% weight change (wt) [2, 5]: −1%
toxic deaths/number of test subjects (deaths) [2, 5]: 0/10
tumor growth suppression (tg supp.) [2, 5]: 69%
% weight change (wt) [2, 6]: +6%
toxic deaths/number of test subjects (deaths) [2, 6]: 0/10
tumor growth suppression (tg supp.) [2, 6]: 0%
% weight change (wt) [2, 7]: +10%
toxic deaths/number of test subjects (deaths) [2, 7]: 0/10
tumor growth suppression (tg supp.) [2, 7]: 45%
% weight change (wt) [2, 8]: −15%
toxic deaths/number of test subjects (deaths) [2, 8]: 3/10
tumor growth suppression (tg supp.) [2, 8]: 100%
% weight change (wt) [2, 9]: −7%
toxic deaths/number of test subjects (deaths) [2, 9]: 0/10
tumor growth suppression (tg supp.) [2, 9]: complete
Tumor Growth Decrease [3]: regression
Tumor Growth Decrease (lung): 69%
T/C (B-16 mouse melanoma; [10]): 191
weight change (B-16 mouse melanoma; [10]): −8.43%
increased life span, Positive Control (P388; P388-luekemia, positive control (125)): curative
T/C (P388; [10]): 191
weight change (P388; [10]): −8.43%

CCC1=C[C@@H]2CN(C1)Cc1c([nH]c3ccccc13)[C@@](C(=O)OC)(c1cc3c(cc1OC)N(C)[C@H]1[C@@](O)(C(=O)OC)[C@H](OC(C)=O)[C@]4(CC)C=CCN5CC[C@]31[C@@H]54)C2 [Navelbine]
% weight change (wt) [2, 11]: −5%
toxic deaths/number of test subjects (deaths) [2, 11]: 1/10
tumor growth suppression (tg supp.) [2, 11]: 26%
increased life span, Positive Control (B-16 mouse melanoma; B16 melanoma, positive control (2)): 265%

Nc1nc2c(ncn2COCCO)c(=O)[nH]1 [acyclovir, reference compound]
mean death date (herpes): 17.2 days
mice survived (herpes): 60%

NC12CC3CC(CC(C3)C1)C2 [amantadine, reference compound]
mice surviving (influenza): 100%

CCCCNC(=O)n1c(NC(=O)OC)nc2ccccc21 [benomyl]
EC-50 Result (A549 lung tumor cells; A549, first column): 0.980 ppm
EC-50 Result (A549 lung tumor cells; A549, second column): 1.02 ppm
EC-50 Result (HT29 colon tumor cells; HT29, first column): 0.742 ppm
EC-50 Result (HT29 colon tumor cells; HT29, second column): 0.747 ppm
EC-50 Result (MX1 breast cells; MX1, first column): 1.42 ppm
EC-50 Result (MX1 breast cells; MX1, second column): 2.42 ppm

N.N.[Cl][Pt][Cl] [cis-plat]
Tumor Growth Decrease (colon): 59%

[Cl-].[Na+] [table salt]
LD50 [4]: 3750 mg/kg
